Assay results reported in patent US8420657B2 (Novartis AG, priority 2008, dated 2013).

Key:
GST-JAK2(808-1132) = target: T1, GST-JAK2(808-1132) (Homo sapiens, UniProt O60674); assay: JAK2 kinase assay (Caliper mobility shift, LabChip 3000); type: biochemical
T1 construct: GST-JAK2(808-1132); purchased Invitrogen (Carlsbad, USA) #4288
Method in brief: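 Eight-point compound series (final 10–0.003 μM) tested on purchased GST-JAK2 kinase domain (808-1132). Peptide FITC-JAK3tide plus ATP reacted 60 min, 30 °C, then quenched with EDTA; turnover from charge-based separation of substrate and product.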

[1] = tested on: JAK1/JAK2-dependent nuclear translocation of STAT1-GFP in HT1080 fibrosarcoma cells; assay: STAT1 nuclear translocation assay (Cellomics), IFN-γ stimulated HT1080 STAT1-GFP cells; type: cell-based; conditions: Homo sapiens, HT-1080, STAT1 translocation pathway
Method in brief: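 IC50 derived from percent nuclear STAT1-GFP translocation, computed from nuclear minus cytoplasmic GFP intensity against untreated baseline and DMSO-stimulated control. Stable HT1080 STAT1-GFP cells received compound (0.003–10 μM, 0.1% DMSO) 30 min ahead of a 2 h 100 ng/ml IFN-γ stimulus, then fixation and Hoechst nuclear masking.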

T1 sequence (O60674 808-1132): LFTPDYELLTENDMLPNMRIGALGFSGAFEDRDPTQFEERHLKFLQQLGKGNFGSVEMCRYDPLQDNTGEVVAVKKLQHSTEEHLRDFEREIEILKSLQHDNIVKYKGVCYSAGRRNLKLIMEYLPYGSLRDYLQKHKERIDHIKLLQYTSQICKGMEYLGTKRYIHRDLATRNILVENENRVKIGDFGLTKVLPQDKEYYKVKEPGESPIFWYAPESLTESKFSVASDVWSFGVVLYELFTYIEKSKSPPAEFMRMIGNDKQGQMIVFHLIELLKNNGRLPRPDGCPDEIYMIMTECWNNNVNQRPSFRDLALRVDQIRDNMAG

SMILES	IC50 (GST-JAK2(808-1132)) [nM]	IC50 [1] [nM]
O=S1(=O)CCN(Cc2c(F)cc(-n3ccc4cnc(Nc5ccncc5)nc43)cc2F)CC1 [Example 183, {7-[4-(1,1-Dioxido-thiomorpholin-4-ylmethyl)-3,5-difluoro-phenyl]-7H-pyrrolo[2,3-d]pyrimidin-2-yl}-pyridin-4-yl-amine]	3.3	95
Cc1ccc(Nc2ncc3ccn(-c4cc(F)c(CN5CCS(=O)(=O)CC5)c(F)c4)c3n2)cc1Cl [Example 129, (3-Chloro-4-methyl-phenyl)-{7-[4-(1,1-dioxido-thiomorpholin-4-ylmethyl)-3,5-difluoro-phenyl]-7H-pyrrolo[2,3-d]pyrimidin-2-yl}-amine]	9	471
COc1cc(Nc2ncc3cc(C)n(-c4ccc(CC(=O)N5CCN(C)CC5)cc4)c3n2)ccc1F [Example 162, 2-{4-[2-(4-Fluoro-3-methoxy-phenylamino)-6-methyl-pyrrolo[2,3-d]pyrimidin-7-yl]-phenyl}-1-(4-methyl-piperazin-1-yl)-ethanone]	305	9700
CC(C)Oc1ccc(Nc2ncc3ccn(-c4ccc(C5(C(=O)N6CCOCC6)CC5)cc4)c3n2)cc1 [Example 84, (1-{4-[2-(4-Isopropoxy-phenylamino)-pyrrolo[2,3-d]pyrimidin-7-yl]-phenyl}-cyclopropyl)-morpholin-4-yl-methanone]	< 3	275
CC(C)Oc1ccc(Nc2ncc3ccn(-c4cc(F)c(CN5CCOCC5)c(F)c4)c3n2)cc1 [Example 126, [7-(3,5-Difluoro-4-morpholin-4-ylmethyl-phenyl)-7H-pyrrolo[2,3-d]pyrimidin-2-yl]-(4-isopropoxy-phenyl)-amine]	11	1620
O=S1(=O)CCN(Cc2c(F)cc(-n3ccc4cnc(Nc5ccc(N6CCNCC6)nc5)nc43)cc2F)CC1 [Example 444, {7-[4-(1,1-Dioxido-thiomorpholin-4-ylmethyl)-3,5-difluoro-phenyl]-7H-pyrrolo[2,3-d]pyrimidin-2-yl}-(6-piperazin-1-yl-pyridin-3-yl)-amine]	≤ 3	90
Cc1ccc(Nc2ncc3ccn(-c4ccc(CC(=O)N5CCN(CCO)CC5)cc4)c3n2)cc1C [Example 212, 2-{4-[2-(3,4-Dimethyl-phenylamino)-pyrrolo[2,3-d]pyrimidin-7-yl]-phenyl}-1-[4-(2-hydroxy-ethyl)-piperazin-1-yl]-ethanone]	< 3	106
O=C(c1cccc(Nc2ncc3ccn(-c4cc(F)c(CN5CCOCC5)c(F)c4)c3n2)c1)N1CCOCC1 [Example 202, {3-[7-(3 5-Difluoro-4-morpholin-4-ylmethyl-phenyl)-7H-pyrrolo[2,3-d]pyrimidin-2-ylamino]-phenyl}-morpholin-4-yl-methanone]	4.5	198
COc1cc(Nc2ncc3ccn(-c4ccc(CC(=O)N5CCOCC5)cc4)c3n2)ccc1F [Example 142, 2-{4-[2-(4-Fluoro-3-methoxy-phenylamino)-pyrrolo[2,3-d]pyrimidin-7-yl]-phenyl}-1-morpholin-4-yl-ethanone]	< 3	101
Cc1cc(Nc2ncc3ccn(-c4ccc(C(=O)N5CCN(C)CC5)c(F)c4)c3n2)ccc1F [Example 88, {2-Fluoro-4-[2-(4-fluoro-3-methyl-phenylamino)-pyrrolo[2,3-d]pyrimidin-7-yl]-phenyl}-(4-methyl-piperazin-1-yl)-methanone]	8.9	3270
Cc1ccc(Nc2ncc3ccn(-c4cc(F)c(CN5CCNC(=O)C5)c(F)c4)c3n2)cc1C [Example 312, 4-{4-[2-(3,4-Dimethyl-phenylamino)-pyrrolo[2,3-d]pyrimidin-7-yl]-2,6-difluoro-benzyl}-piperazin-2-one]	13	565
CC(C)Oc1ccc(Nc2ncc3ccn(-c4ccc(CCN5CCOCC5)cc4)c3n2)cc1 [Example 115, (4-Isopropoxy-phenyl)-{7-[4-(2-morpholin-4-yl-ethyl)-phenyl]-7H-pyrrolo[2,3-d]pyrimidin-2-yl}-amine]	16	714
Cn1cc(Nc2ncc3ccn(-c4cc(F)c(C(=O)N5CCOCC5)c(F)c4)c3n2)cn1 [Example 241, {2,6-Difluoro-4-[2-(1-methyl-1H-pyrazol-4-ylamino)-pyrrolo[2,3-d]pyrimidin-7-yl]-phenyl}-morpholin-4-yl-methanone]	5.4	370
CC(C)Oc1ccc(Nc2ncc3ccn(-c4ccc(C(=O)N5CCOCC5)cc4)c3n2)cc1 [Example 231, {4-[2-(4-Isopropoxy-phenylamino)-pyrrolo[2,3-d]pyrimidin-7-yl]-phenyl}-morpholin-4-yl-methanone]	3.2	258
CC(C)Oc1ccc(Nc2ncc3ccn(-c4ccc(CN5CCS(=O)(=O)CC5)c(F)c4)c3n2)cc1 [Example 112, {7-[4-(1,1-Dioxido-thiomorpholin-4-ylmethyl)-3-fluoro-phenyl]-7H-pyrrolo[2,3-d]pyrimidin-2-yl}-(4-isopropoxy-phenyl)-amine]	< 3	73
CN1CCN(Cc2ccc(Nc3ncc4ccn(-c5ccc(C(=O)N6CCOCC6)c(F)c5)c4n3)cc2)CC1=O [Example 337, 4-(4-{7-[3-Fluoro-4-(morpholine-4-carbonyl)-phenyl]-7H-pyrrolo[2,3-d]pyrimidin-2-ylamino}-benzyl)-1-methyl-piperazin-2-one]	6.1	185
Cc1ccc(Nc2ncc3ccn(-c4ccc(CC(=O)N5CCN(C)CC5)cc4)c3n2)cc1 [Example 149, 1-(4-Methyl-piperazin-1-yl)-2-[4-(2-p-tolylamino-pyrrolo[2,3-d]pyrimidin-7-yl)-phenyl]-ethanone]	130	1510
CCOc1ccc(Nc2ncc3cc(C)n(-c4ccc(CC(=O)N5CCS(=O)(=O)CC5)c(F)c4)c3n2)cc1OCC [Example 286, 2-{4-[2-(3,4-Diethoxy-phenylamino)-6-methyl-pyrrolo[2,3-d]pyrimidin-7-yl]-2-fluoro-phenyl}-1-(1,1-dioxido-thiomorpholin-4-yl)-ethanone]	10.6	285
Cc1ccc(Nc2ncc3ccn(-c4ccc(C(=O)N5CCS(=O)(=O)CC5)cc4)c3n2)cn1 [Example 249, (1,1-Dioxido-thiomorpholin-4-yl)-{4-[2-(6-methyl-pyridin-3-ylamino)-pyrrolo[2,3-d]pyrimidin-7-yl]-phenyl}-methanone]	4.3	815
Cc1ccc(Nc2ncc3ccn(-c4ccc(CC(=O)N5CCOCC5)cc4)c3n2)cc1 [Example 141, 1-Morpholin-4-yl-2-[4-(2-p-tolylamino-pyrrolo[2,3-d]pyrimidin-7-yl)-phenyl]-ethanone]	< 3	130
Cc1cc(Nc2ncc3ccn(-c4ccc(C5(C(=O)N6CCN(C)CC6)CC5)cc4)c3n2)ccc1F [Example 122, (1-{4-[2-(4-Fluoro-3-methyl-phenylamino)-pyrrolo[2,3-d]pyrimidin-7-yl]-phenyl}-cyclopropyl)-(4-methyl-piperazin-1-yl)-methanone]	3.3	164
CC(C)Oc1ccc(Nc2ncc3ccn(-c4cc(F)c(CN5CCS(=O)(=O)CC5)c(F)c4)c3n2)cc1 [Example 194, {7-[4-(1,1-Dioxido-thiomorpholin-4-ylmethyl)-3,5-difluoro-phenyl]-7H-pyrrolo[2,3-d]pyrimidin-2-yl}-(4-isopropoxy-phenyl)-amine]	< 3	202
CCN1CCN(Cc2ccc(Nc3ncc4ccn(-c5cc(F)c(CN6CCOCC6)c(F)c5)c4n3)cc2)CC1 [Example 196, [7-(3,5-Difluoro-4-morpholin-4-ylmethyl-phenyl)-7H-pyrrolo[2,3-d]pyrimidin-2-yl]-[4-(4-ethyl-piperazin-1-ylmethyl)-phenyl]-amine]	< 3	176
CC(C)Oc1ccc(Nc2ncc3ccn(-c4ccc(C5(C(=O)N6CCN(C)CC6)CC5)cc4)c3n2)cc1 [Example 103, (1-{4-[2-(4-Isopropoxy-phenylamino)-pyrrolo[2,3-d]pyrimidin-7-yl]-phenyl}-cyclopropyl)-(4-methyl-piperazin-1-yl)-methanone]	< 3	220
Cc1cc(Nc2ncc3ccn(-c4ccc(CN5CCOCC5)c(F)c4)c3n2)ccc1F [Example 127, (4-Fluoro-3-methyl-phenyl)-[7-(3-fluoro-4-morpholin-4-ylmethyl-phenyl)-7H-pyrrolo[2,3-d]pyrimidin-2-yl]-amine]	10.5	720
CC(C)Oc1ccc(Nc2ncc3ccn(-c4ccc(C(=O)N5CCOCC5)cc4F)c3n2)cc1 [Example 522, {3-Fluoro-4-[2-(4-isopropoxy-phenylamino)-pyrrolo[2,3-d]pyrimidin-7-yl]-phenyl}-morpholin-4-yl-methanone]	8	2890
CC(C)Oc1ccc(Nc2ncc3ccn(-c4ccc(C(C)(C)C(=O)N5CCOCC5)cc4)c3n2)cc1 [Example 83, 2-{4-[2-(4-Isopropoxy-phenylamino)-pyrrolo[2,3-d]pyrimidin-7-yl]-phenyl}-2-methyl-1-morpholin-4-yl-propan-1-one]	< 3	460
CN1CCN(c2cccc(Nc3ncc4ccn(-c5ccc(S(C)(=O)=O)cc5)c4n3)c2)CC1 [Example 17, [7-(4-Methanesulfonyl-phenyl)-7H-pyrrolo[2,3-d]pyrimidin-2-yl]-[3-(4-methyl-piperazin-1-yl)-phenyl]-amine]	< 3	20.5
